Laboratory results reported in patent US9642362B2, “Antimicrobial compositions and uses thereof” (CASCADES CANADA ULC, priority 2012, dated 2017).
Where no end group is shown, it is not given here.

How the values were obtained:
E. coli ATCC 11229 [1] = assay: Agar diffusion test of pre-soaked paper towel; assay type: cell-based, Escherichia coli; settings: FIG. 5
Text: The antimicrobial activity of the compositions as described herein on a cellulosic substrate could be determined by soaking the cellulosic substrate in the compositions to be tested and plating the cellulosic substrate on agar. An agar diffusion test could then be performed.
The agar well diffusion method previously described by Tagg et al. 1976 was applied as a rapid method to detect the inhibitory activity of the compounds directly (as a solution) or after immobilization on paper towel. Briefly, 25 mL of sterile TSB with 0.8% (w/v) agar was seeded with 150 μL of an overnight culture of one of the target sensitive strains and poured into a sterile Petri dish (Starstedt Inc., Montreal, Canada). The Petri dishes were kept for 20 min at room temperature under sterile conditions to allow agar solidification. Wells 7 mm in diameter were then cut in the solidified agar using the wide end of a sterile 5-mL pipette. Each well was filled with 80 μL of the compound or mixture to be tested. In the case of pre-soaked paper towel, circles 1 cm in diameter were cut and deposited directly on the solidified agar. All plates were incubated at 30° C. for 18 h and the diameter of the zone of inhibition was measured.
The aim of this experiment was to study the inhibition of bacterial growth by the antimicrobial Mix I and II in association with paper towels.

E. coli ATCC 11229 [2] = assay: Growth curves by microplate microdilution method; assay type: cell-based, Escherichia coli; settings: for Reduction of growth, taken separately compared with combined (Mix II): FIG. 1A; for Inhibition (growth curves): FIGS. 1A, 2, compounds alone at citric acid 0.25%, lactic acid 0.25%, reuterin 1.25%, or combined as Mix
Method: (§1) The inhibitory activity of the various antimicrobial compounds alone or in combination was assayed using the microtiter plate critical dilution method with two-fold serial dilutions in TSB (Turcotte et al., 2004). The 100-μL carry-over volume was drawn into the multi-channel pipette four times between each dilution. Wells were then seeded with 40 μL of target strain overnight culture diluted 1,000 fold. The plates (MIC-2000 U-Bottom Microtiter® Plates; Thermo Labsystems, Franklin, Mass., USA) were incubated at 30° C. for 18 h before reading the optical density at 650 nm using a Thermomax microplate reader (Molecular Devices, Opti-Resources, Charny, QC, Canada).
(§2) One arbitrary unit (AU) was defined as a 100-μL portion of the highest dilution of tested sample that inhibited growth in a well after 18 h of incubation (Daba et al, 1993). […] The number of AU per ml is thus […], where n=number of inhibited wells.

Listeria ivanovii HPB28 = assay: Growth curves by microplate microdilution method; assay type: cell-based; settings: for Reduction of growth, taken separately compared with combined (Mix II): FIG. 1B; for Reduction of growth, taken separately compared with combined (Mix I): FIG. 2B, lactic acid (0.125%), citric acid (0.0625%) and pediocin; for Inhibition (growth curves): FIGS. 1B, 2, compounds alone at citric acid 0.25%, lactic acid 0.25%, reuterin 1.25%, or combined as Mix
Method: as §1, §2

Compound: CC(=O)O [acetic acid]
- Inhibition of bacterial growth, individually compared with Mix I and Mix II (E. coli ATCC 11229 [1]): do not inhibit E. Coli ATCC 11229 bacterial growth as efficiently as Mix I

Compound: O=C(O)CC(O)(CC(=O)O)C(=O)O [citric acid]
- Reduction of growth, taken separately compared with combined (Mix II) (E. coli ATCC 11229 [2]): do not reduce the growth of E. Coli ATCC 11229 or Listeria ivanovii HPB28 as efficiently
- Inhibition (growth curves) (E. coli ATCC 11229 [2]): partial and non-significant inhibition
- Reduction of growth, taken separately compared with combined (Mix II) (Listeria ivanovii HPB28): do not reduce the growth of E. Coli ATCC 11229 or Listeria ivanovii HPB28 as efficiently
- Reduction of growth, taken separately compared with combined (Mix I) (Listeria ivanovii HPB28): do not reduce the growth of Listeria ivanovii HPB28 as efficiently
- Inhibition (growth curves) (Listeria ivanovii HPB28): partial and non-significant inhibition

Compound: CC(O)C(=O)O (centres unmarked) [lactic acid]
- Reduction of growth, taken separately compared with combined (Mix II) (E. coli ATCC 11229 [2]): do not reduce the growth of E. Coli ATCC 11229 or Listeria ivanovii HPB28 as efficiently
- Inhibition (growth curves) (E. coli ATCC 11229 [2]): partial and non-significant inhibition
- Reduction of growth, taken separately compared with combined (Mix II) (Listeria ivanovii HPB28): do not reduce the growth of E. Coli ATCC 11229 or Listeria ivanovii HPB28 as efficiently
- Reduction of growth, taken separately compared with combined (Mix I) (Listeria ivanovii HPB28): do not reduce the growth of Listeria ivanovii HPB28 as efficiently
- Inhibition (growth curves) (Listeria ivanovii HPB28): partial and non-significant inhibition
- Inhibition of bacterial growth, individually compared with Mix I and Mix II (E. coli ATCC 11229 [1]): do not inhibit E. Coli ATCC 11229 bacterial growth as efficiently as Mix I

Compound: pediocin: Fresh pediocin extract; class IIa bacteriocin produced by lactic acid bacteria (KYYGNGVTCGKHSCSVDWGKATTCIINNGAMAWATGGHQGNHKC; ends and bridges not checked; cysteine pairing not given here; UniProt P29430 19-62, looked up)
- Reduction of growth, taken separately compared with combined (Mix I) (Listeria ivanovii HPB28): do not reduce the growth of Listeria ivanovii HPB28 as efficiently
- Inhibition of bacterial growth, individually compared with Mix I and Mix II (E. coli ATCC 11229 [1]): do not inhibit E. Coli ATCC 11229 bacterial growth as efficiently as Mix I
